Test results taken from the kinase profiling compilation of Christmann-Franck et al. (2016).

What was measured:
Experiment in all cases: radiometric filter-binding kinase assay
[1] = molecular target: MKNK2 (human) (UniProt Q9HBH9)
[2] = molecular target: PIM2 (human) (UniProt Q9P1W9)
[3] = molecular target: MAP2K6 (human) (UniProt P52564)
[4] = molecular target: MAPKAPK5 (human) (UniProt Q8IW41)
[5] = system: AKT1 (human), P31749 [S473D]
[6] = molecular target: PLK1 (human) (UniProt P53350)
[7] = molecular target: RPS6KA1 KD1 KD2 (human) (UniProt Q15418)
Chain of RPS6KA1 KD1 KD2 (human) (Q15418 whole entry, looked up): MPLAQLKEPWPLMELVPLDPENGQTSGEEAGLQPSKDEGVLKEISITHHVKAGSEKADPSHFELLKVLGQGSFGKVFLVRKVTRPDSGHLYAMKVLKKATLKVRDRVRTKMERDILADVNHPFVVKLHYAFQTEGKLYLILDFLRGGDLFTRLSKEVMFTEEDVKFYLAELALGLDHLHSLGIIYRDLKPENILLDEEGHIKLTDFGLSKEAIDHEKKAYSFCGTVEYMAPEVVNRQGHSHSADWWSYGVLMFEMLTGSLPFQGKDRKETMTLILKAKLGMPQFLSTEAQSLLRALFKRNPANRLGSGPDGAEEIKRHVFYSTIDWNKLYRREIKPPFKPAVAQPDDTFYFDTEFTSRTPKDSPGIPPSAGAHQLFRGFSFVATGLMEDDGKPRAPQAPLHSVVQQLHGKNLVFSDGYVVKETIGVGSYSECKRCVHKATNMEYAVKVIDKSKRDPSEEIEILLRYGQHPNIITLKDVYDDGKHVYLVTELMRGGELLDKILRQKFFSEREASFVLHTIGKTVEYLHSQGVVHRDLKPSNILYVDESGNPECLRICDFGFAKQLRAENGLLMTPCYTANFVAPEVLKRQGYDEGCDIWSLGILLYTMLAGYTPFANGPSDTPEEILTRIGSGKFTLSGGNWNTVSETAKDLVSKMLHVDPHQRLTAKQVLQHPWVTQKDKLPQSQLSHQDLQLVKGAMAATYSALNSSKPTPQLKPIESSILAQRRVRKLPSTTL

[8] = molecular target: MAP3K11 (human) (UniProt Q16584)
[9] = molecular target: MAPK8 (human) (UniProt P45983)
[10] = system: SGK1 (human), O00141 [S422D]
Chain of SGK1 (human), O00141 [S422D] (O00141 whole entry S422D, looked up): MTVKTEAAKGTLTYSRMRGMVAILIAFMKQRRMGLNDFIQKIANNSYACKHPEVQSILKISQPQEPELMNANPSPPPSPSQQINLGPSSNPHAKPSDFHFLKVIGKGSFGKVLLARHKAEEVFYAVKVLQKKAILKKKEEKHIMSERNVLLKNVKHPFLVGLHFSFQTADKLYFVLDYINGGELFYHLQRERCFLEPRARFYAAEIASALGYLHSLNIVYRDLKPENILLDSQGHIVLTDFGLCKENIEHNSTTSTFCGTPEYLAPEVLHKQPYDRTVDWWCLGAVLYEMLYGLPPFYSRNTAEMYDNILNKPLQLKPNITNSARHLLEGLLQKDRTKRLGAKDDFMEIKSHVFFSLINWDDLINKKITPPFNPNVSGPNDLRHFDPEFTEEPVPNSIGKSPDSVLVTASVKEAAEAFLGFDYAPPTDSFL

[11] = molecular target: PAK4 (human) (UniProt O96013)
Chain of PAK4 (human) (O96013 whole entry, looked up): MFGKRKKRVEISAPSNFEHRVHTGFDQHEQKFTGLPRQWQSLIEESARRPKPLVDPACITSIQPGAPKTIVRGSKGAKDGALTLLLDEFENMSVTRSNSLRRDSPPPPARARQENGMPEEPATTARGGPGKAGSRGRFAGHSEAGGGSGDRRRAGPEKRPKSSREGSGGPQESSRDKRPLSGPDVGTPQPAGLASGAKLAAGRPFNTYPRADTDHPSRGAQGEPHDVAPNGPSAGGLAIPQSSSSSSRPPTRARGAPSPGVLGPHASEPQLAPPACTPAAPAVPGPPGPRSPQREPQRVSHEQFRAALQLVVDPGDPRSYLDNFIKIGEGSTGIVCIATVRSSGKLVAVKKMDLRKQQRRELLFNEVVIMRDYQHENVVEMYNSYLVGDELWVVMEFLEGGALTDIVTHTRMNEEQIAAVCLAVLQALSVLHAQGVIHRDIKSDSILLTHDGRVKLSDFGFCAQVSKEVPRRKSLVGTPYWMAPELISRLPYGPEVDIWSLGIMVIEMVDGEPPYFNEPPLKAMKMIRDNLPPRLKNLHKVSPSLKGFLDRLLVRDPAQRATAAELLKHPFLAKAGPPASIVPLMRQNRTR

[12] = molecular target: CLK2 (human) (UniProt P49760)
[13] = molecular target: TBK1 (human) (UniProt Q9UHD2)
[14] = molecular target: IKBKB (human) (UniProt O14920)
[15] = molecular target: PIM3 (human) (UniProt Q86V86)
[16] = molecular target: MAPK3 (human) (UniProt P27361)
Chain of MAPK3 (human) (P27361 whole entry, looked up): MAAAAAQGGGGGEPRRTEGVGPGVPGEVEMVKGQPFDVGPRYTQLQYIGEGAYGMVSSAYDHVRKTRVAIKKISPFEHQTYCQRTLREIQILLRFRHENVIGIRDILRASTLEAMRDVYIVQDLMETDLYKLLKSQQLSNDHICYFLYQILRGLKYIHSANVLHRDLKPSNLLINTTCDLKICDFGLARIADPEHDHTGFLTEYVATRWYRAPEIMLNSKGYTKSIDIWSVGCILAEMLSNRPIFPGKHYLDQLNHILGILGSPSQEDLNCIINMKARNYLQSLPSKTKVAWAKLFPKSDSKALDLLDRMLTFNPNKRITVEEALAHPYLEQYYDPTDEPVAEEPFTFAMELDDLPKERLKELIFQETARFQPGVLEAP

[17] = molecular target: STK3 (human) (UniProt Q13188)

Chain of AKT1 (human), P31749 [S473D] (P31749 whole entry S473D, looked up): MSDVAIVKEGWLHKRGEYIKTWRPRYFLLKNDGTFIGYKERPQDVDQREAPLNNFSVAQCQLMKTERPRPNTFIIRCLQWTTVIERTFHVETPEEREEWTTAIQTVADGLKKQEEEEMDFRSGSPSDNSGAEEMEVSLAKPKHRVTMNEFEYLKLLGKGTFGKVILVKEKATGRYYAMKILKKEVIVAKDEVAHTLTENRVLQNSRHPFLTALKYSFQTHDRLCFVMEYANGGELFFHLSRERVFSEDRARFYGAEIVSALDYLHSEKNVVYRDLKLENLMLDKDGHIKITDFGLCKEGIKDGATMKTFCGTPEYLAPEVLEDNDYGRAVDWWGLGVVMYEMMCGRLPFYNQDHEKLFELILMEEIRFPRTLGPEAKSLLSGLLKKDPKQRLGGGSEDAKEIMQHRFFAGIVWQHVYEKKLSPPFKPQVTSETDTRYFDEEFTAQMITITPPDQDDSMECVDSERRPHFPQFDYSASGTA
Chain of PIM2 (human) (Q9P1W9 whole entry, looked up): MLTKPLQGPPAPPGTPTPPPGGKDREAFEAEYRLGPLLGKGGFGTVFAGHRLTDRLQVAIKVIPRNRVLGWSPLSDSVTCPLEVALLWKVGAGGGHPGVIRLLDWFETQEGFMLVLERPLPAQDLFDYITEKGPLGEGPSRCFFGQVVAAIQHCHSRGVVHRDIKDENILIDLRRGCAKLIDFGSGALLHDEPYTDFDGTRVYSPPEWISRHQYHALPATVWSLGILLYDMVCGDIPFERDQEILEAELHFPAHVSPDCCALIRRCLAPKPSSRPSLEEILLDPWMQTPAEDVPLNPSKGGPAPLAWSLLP
Chain of MAPKAPK5 (human) (Q8IW41 whole entry, looked up): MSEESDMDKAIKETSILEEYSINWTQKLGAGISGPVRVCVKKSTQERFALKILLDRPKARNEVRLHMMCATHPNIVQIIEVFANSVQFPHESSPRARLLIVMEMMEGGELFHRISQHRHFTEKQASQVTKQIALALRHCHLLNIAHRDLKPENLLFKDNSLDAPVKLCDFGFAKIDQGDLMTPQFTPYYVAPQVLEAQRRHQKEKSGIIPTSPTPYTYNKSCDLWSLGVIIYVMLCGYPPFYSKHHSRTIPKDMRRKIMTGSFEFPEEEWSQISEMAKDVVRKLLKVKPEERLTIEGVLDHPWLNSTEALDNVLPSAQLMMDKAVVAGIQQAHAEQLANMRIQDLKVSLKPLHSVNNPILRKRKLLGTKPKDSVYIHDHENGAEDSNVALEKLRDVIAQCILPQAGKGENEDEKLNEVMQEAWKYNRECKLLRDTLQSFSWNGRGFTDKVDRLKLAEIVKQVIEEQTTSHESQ
Chain of PLK1 (human) (P53350 whole entry, looked up): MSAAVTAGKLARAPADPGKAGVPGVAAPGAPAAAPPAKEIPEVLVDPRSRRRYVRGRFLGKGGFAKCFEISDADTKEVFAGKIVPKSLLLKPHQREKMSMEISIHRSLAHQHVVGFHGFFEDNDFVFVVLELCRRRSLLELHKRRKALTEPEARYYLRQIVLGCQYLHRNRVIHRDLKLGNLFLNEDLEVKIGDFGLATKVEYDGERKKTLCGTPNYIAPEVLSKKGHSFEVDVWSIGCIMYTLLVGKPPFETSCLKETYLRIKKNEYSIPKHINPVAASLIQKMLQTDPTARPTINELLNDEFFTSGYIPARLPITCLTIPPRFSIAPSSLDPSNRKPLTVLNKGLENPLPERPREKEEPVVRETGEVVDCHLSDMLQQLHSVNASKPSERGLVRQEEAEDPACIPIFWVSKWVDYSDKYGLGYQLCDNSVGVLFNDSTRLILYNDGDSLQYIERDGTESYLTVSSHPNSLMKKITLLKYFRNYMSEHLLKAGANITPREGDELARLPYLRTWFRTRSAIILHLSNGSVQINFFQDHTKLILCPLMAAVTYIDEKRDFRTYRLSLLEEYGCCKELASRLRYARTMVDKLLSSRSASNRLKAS
Chain of MKNK2 (human) (Q9HBH9 whole entry, looked up): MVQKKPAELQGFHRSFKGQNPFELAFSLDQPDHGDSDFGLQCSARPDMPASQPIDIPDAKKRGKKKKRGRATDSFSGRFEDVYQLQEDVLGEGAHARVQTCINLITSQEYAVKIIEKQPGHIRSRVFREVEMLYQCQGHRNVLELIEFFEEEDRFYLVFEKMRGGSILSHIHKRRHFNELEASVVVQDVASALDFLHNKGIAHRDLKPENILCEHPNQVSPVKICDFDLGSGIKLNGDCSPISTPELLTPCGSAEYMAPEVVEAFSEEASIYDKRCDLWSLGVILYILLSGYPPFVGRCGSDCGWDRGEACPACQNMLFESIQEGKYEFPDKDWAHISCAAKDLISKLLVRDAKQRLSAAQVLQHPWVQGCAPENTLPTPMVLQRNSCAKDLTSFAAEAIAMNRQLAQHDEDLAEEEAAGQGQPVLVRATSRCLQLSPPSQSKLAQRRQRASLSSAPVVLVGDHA

## O=C(Nc1ccccc1-c1cn2c(CN3CCNCC3)csc2n1)c1cnc2ccccc2n1
[1]; compound 0.1 µM
  residual activity: 90%
[1]; compound 1.0 µM
  residual activity: 92%
[1]; compound 10.0 µM
  residual activity: 96%
[2]; compound 0.1 µM
  residual activity: 90%
[2]; compound 1.0 µM
  residual activity: 95%
[2]; compound 10.0 µM
  residual activity: 78%
[3]; compound 1.0 µM
  residual activity: 97%
[3]; compound 10.0 µM
  residual activity: 98%
[4]; compound 0.1 µM
  residual activity: 101%
[4]; compound 1.0 µM
  residual activity: 91%
[4]; compound 10.0 µM
  residual activity: 105%
[5]; compound 0.1 µM
  residual activity: 86%
[5]; compound 1.0 µM
  residual activity: 91%
[5]; compound 10.0 µM
  residual activity: 88%
[6]; compound 0.1 µM
  residual activity: 84%
[6]; compound 1.0 µM
  residual activity: 94%
[6]; compound 10.0 µM
  residual activity: 104%
[7]; compound 0.1 µM
  residual activity: 88%
[7]; compound 1.0 µM
  residual activity: 66%
[7]; compound 10.0 µM
  residual activity: 34%
[8]; compound 1.0 µM
  residual activity: 88%
[8]; compound 10.0 µM
  residual activity: 56%
[9]; compound 0.1 µM
  residual activity: 116%
[9]; compound 1.0 µM
  residual activity: 103%
[9]; compound 10.0 µM
  residual activity: 86%
[10]; compound 0.1 µM
  residual activity: 89%
[10]; compound 1.0 µM
  residual activity: 94%
[10]; compound 10.0 µM
  residual activity: 84%
[11]; compound 0.1 µM
  residual activity: 83%
[11]; compound 1.0 µM
  residual activity: 110%
[11]; compound 10.0 µM
  residual activity: 96%
[12]; compound 1.0 µM
  residual activity: 60%
[12]; compound 10.0 µM
  residual activity: 18%
[13]; compound 0.1 µM
  residual activity: 97%
[13]; compound 1.0 µM
  residual activity: 91%
[13]; compound 10.0 µM
  residual activity: 56%
[14]; compound 0.1 µM
  residual activity: 84%
[14]; compound 1.0 µM
  residual activity: 93%
[14]; compound 10.0 µM
  residual activity: 84%
[15]; compound 0.1 µM
  residual activity: 95%
[15]; compound 1.0 µM
  residual activity: 55%
[15]; compound 10.0 µM
  residual activity: 24%
[16]; compound 0.1 µM
  residual activity: 88%
[16]; compound 1.0 µM
  residual activity: 105%
[16]; compound 10.0 µM
  residual activity: 117%
[17]; compound 0.1 µM
  residual activity: 85%
[17]; compound 1.0 µM
  residual activity: 96%
[17]; compound 10.0 µM
  residual activity: 92%
